Values quoted from earlier work as cited in publication PMC12305721 (International Journal of Pharmaceutics: X, 2025).

Set-up: method as in Song et al., 2016
Conditions: reduced from −43.19 °C; ref Song et al., 2016

CCCCCCCCCCCCN1CCCCCC1=O [Azone]
Tg of PSAs after incorporation of Azone: −52.92 °C
